Source: US20220241308A1, “NEURONAL FUNCTION MODULATING AGENT” (University of Tsukuba, priority 2019, published 2022)

Columns and labels:
[1] = tested on: MAPK8 (mitogen-activated protein kinase 8); assay: Gene expression experiment (real-time PCR) in SH-SY5Y cells: MAPK8; format: cell-based; settings: 24 h
Procedure: SH-SY5Y cells were seeded in 100 mm-cell dishes (BD Biocoat) at concentrations of 3.7×10^5 cells/mL (10 mL/dish) and cultured for 24 h at 37° C. and 5% CO2. Culture medium used was F12/DMEM (Gibco) supplemented with 1% non-essential amino acids (Gibco), 15% FBS (Bio West), and 1% penicillin/streptomycin (Lonza). After 24 h, the culture medium was completely removed with an aspirator, 10 mL of culture medium Opti-MEM(Gibco) was added to each dish, and the cells were cultured for 24 h at 37° C. and 5% CO2. RNA was extracted from the culture cells and analyzed for the expression of genes described below by real-time PCR (designated as “Control” in FIGS. 2 to 8).
RNA extraction was performed using ISOGEN Reagent (Nippon Gene Co., Ltd.) in accordance with the protocol recommended by Nippo n Gene Co., Ltd. (see URL: https://www.nippongene.com/siyaku/product/extraction/tds/tds_isogen-rna-dna-protein.pdf). Real-time PCR was performed according to the protocol recommended by Thermo Fisher Scientific using a reagent kit for TaqMan Real-Time PCR (Thermo Fisher Scientific) (see URL: https://assets.thermofisher.com/TFS-Assets/LSG/manuals/4304449_TaqManPCRMM_UG.pdf).
24 h after seeding 100 mm-cell dishes (BD Biocoat) with SH-SY5Y cells, the culture medium was completely removed with an aspirator, amyloid β protein (Beta-Amyloid 1-42, AnaSpec) was mixed with Opti-MEM (Gibco) so that the final concentration was 5 μM, 10 mL of the mixture was added to each dish, the cells were cultured for 24 h at 37° C. and 5% CO2, and RNA was extracted. Except for performing the procedure described above, gene expression was analyzed as described above (designated as “Aβ” in FIGS. 2 to 8).
24 h after seeding 100 mm-cell dishes (BD Biocoat) with SH-SY5Y cells, the culture medium was completely removed with an aspirator, Sample 1 was mixed with culture medium Opti-MEM(Gibco) so that the final concentration was 12.56 μM, 9,990 μL of the mixture was added to each dish and allowed to stand for 10 min, amyloid β protein (Beta-Amyloid 1-42, AnaSpec) was mixed with Opti-MEM (Gibco) so that the final concentration was […], 10 μL of the mixture was added to each well, the cells were cultured for 24 h at 37° C. and 5% CO2, and RNA was extracted. Except for performing the procedure described above, Gene expression was analyzed as described above (designated as “Aβ+M3,5G” in FIGS. 2 to 8).
Except that Sample 2 was used instead of Sample 1, gene expression was analyzed as described above (designated as “Aβ+M” in FIGS. 2 to 8).
Except that Sample 3 was used instead of Sample 1, gene expression was analyzed as described above (designated as “Aβ+M3G” in FIGS. 2 to 8). […]

[2] = tested on: SH-SY5Y cells; assay: ATP production measurement experiment; format: cell-based; settings: 12.56 μM; 6 h, 12 h, 24 h; compared to “Control”
Procedure: Specifically, ATP production was measured according to the protocol recommended by Toyo B-NET (URL: https://search.cosmobio.co.jp/cosmo_search_p/search_gate2/docs/TIC_/CA10.20131125.pdf) using an ATP assay reagent (“Cell” ATP Assay reagent, Toyo B-NET) (designated as “Control” in FIG. 9).
Each well of a 96-well plate (BD Biocoat) was seeded with SH-SY5Y cells (model of neuronal cells, ATCC) at a concentration of 2×10^5 cells/mL (100 μL/well) and the cells were cultured at 37° C. and 5% CO2 for 24 h. Culture medium used was F12/DMEM (Gibco) supplemented with 1% non-essential amino acids (Gibco), 15% FBS (Bio West), and 1% penicillin/streptomycin (Lonza).
After 24 h, the culture medium was completely removed with an aspirator, 100 μL of culture medium Opti-MEM (Gibco) was added to each well, and the cells were cultured for 6 h, 12 h, and 24 h at 37° C. and 5% CO2. After each culturing time point, 100 μL of ATP assay reagent (“Cell” ATP Assay reagent, Toyo Ink)) was added to each well and mixed and the mixture was allowed to stand for reaction for 10 min at room temperature in dark conditions. […] Light emission after a lapse of a predetermined time was measured on a microplate reader (Sumitomo Dainippon Pharma) to find ATP production (designated as “Control” in FIG. 9). […]

COc1cc(-c2[o+]c3cc(O)cc(OC4OC(CO)C(O)C(O)C4O)c3cc2OC2OC(CO)C(O)C(O)C2O)cc(OC)c1O (stereo not shown) [M3,5G, Malvidin-3,5-diglucoside chloride]
expression of MAPK8 ([1]; 12.56 μM, amyloid β protein-treated cells, compared to “Aβ”): significantly high
expression of MAPK8 ([1]; 12.56 μM, amyloid β protein-treated cells, compared to “Control”): significantly high
expression of MAPK8 ([1]; Sample 1 alone, no amyloid β, compared to “Control”): significantly increased
ATP production [2]: increased ATP production
